Experimental data published in patent publication US20090203661A1, “Betulinic acid, derivatives and analogs thereof and uses therefor” (priority 2006, published 2009).

How the values were obtained:
[1] = test system: HCT-15 cells; assay: Caveolin-1 expression (Western blot) in HCT-15 cells; type: cell-based, human; conditions: HCT-15, cotreatment with T007
Method: SW480, HT-29, HCT-15 and Panc-28 (3×10^5) colon cancer cells were seeded in 6-well tissue culture plates in DMEM/Ham's F-12 medium containing 2.5% charcoal-stripped FBS. Protein is extracted from the cells treated either with vehicle or indicated compounds suspended for 24 hr except for caveolin-1 protein which was done for 72 hr. Samples were extracted in high salt buffer [50 mmol/L HEPES, 500 mmol/L NaCl, 1.5 mmol/L MgCl2, 1 mmol/L EGTA, 10% glycerol, and 1% Triton X-100 (pH 7.5), and 5 μL/mL protease inhibitor cocktail (Sigma-Aldrich)]. Samples were incubated at 100° C. for 2 min, separated on either 10% or 12% SDS-PAGE gels and then transferred to polyvinylidene difluoride membrane (PVDF; Bio-Rad, Hercules, Calif.). The PVDF membrane was blocked in 5% TBST-Blotto (10 mM Tris HCl, 150 mM NaCl, pH 8.0, 0.05% Triton X-100, and 5% nonfat dry milk) for about 30 min and was then incubated in fresh 5% TBST-Blotto with 1:1000 for caveolin-1 (Santa Cruz Biotechnology, Santa Cruz, Calif.), 1:1000 for p21 (BD Pharmingen, Frank lakes, NJ) and 1:10000 for β-actin (Sigma) primary antibody overnight with gentle shaking at 4° C. After washing with TBST for 10 min, the membrane was incubated with respective secondary antibody (1:5000) (Santa cruz, Calif.) in 5% TBST-Blotto for 3 hr. […]

[2] = test system: p21 promoter; assay: Chromatin immunoprecipitation (ChIP) assay, p21 promoter, Panc-28 cells; type: cell-based, human; conditions: 5 μM, 1 or 2 hr
Method: Panc-28 cells were treated with the different compounds as indicated for 24 hr and whole cell lysates were obtained and analyzed by immunoblots. […] Cells were transfected with the various constructs, treated with DMSO, BA, CN-BA, CN-BA-Me alone or in combination with T007, and luciferase activity determined. Results of all transactivation studies in this Figure are presented as means±SE for at least three separate determinations for each treatment group. Significant (p<0.05) induction compared to solvent (DMSO) control (*) and inhibition by cotreatment with T007 (**) are indicated. FIGS. 10D-10F show chromatin immunoprecipitation assays. Primers designed for the proximal region of the p21 promoter (FIG. 10D) were used for a ChIP assay in Panc-28 cells (FIG. 10E) treated with DMSO, 5 μM BA, 5 μM CN-BA, and 5 μM CN-BA-Me for 1 or 2 hr. Analysis of interactions of Sp1 and PPARγ with the p21 promoter were carried out in the ChIP assay as described. The ChIP assay was also used to examine binding of TFIIB to the GAPDH promoter (positive control) (FIG. 10F) and to exon 1 of CNAP1 (negative control).
The ligand-dependent recruitment of PPARγ to the p21 promoter by CN-BA and CN-BA-Me was examined using a ChIP assay of Panc-28 cells treated with the betulinic acid, CN-BA and CN-BA-Me for 1 or 2 hr. […] This is consistent with receptor-independent activation of p21 by betulinic acid and the mechanism of this response is currently being investigated. As a control for this experiment, transcription factor TFIIb bound to the proximal region of the GAPDH gene promoter but not to exon-1 of the CNAP1 gene.

[3] = test system: HT-29 cells; assay: Caveolin-1 expression (Western blot) in HT-29 cells; type: cell-based, human; conditions: for caveolin-1 induction: HT-29, 72 hr; for effect of T007 on induced caveolin-1 response: HT-29, cotreatment with T007
Method: SW480, HT-29, HCT-15 and Panc-28 (3×10^5) colon cancer cells were seeded in 6-well tissue culture plates in DMEM/Ham's F-12 medium containing 2.5% charcoal-stripped FBS. Protein is extracted from the cells treated either with vehicle or indicated compounds suspended for 24 hr except for caveolin-1 protein which was done for 72 hr. Samples were extracted in high salt buffer [50 mmol/L HEPES, 500 mmol/L NaCl, 1.5 mmol/L MgCl2, 1 mmol/L EGTA, 10% glycerol, and 1% Triton X-100 (pH 7.5), and 5 μL/mL protease inhibitor cocktail (Sigma-Aldrich)]. Samples were incubated at 100° C. for 2 min, separated on either 10% or 12% SDS-PAGE gels and then transferred to polyvinylidene difluoride membrane (PVDF; Bio-Rad, Hercules, Calif.). The PVDF membrane was blocked in 5% TBST-Blotto (10 mM Tris HCl, 150 mM NaCl, pH 8.0, 0.05% Triton X-100, and 5% nonfat dry milk) for about 30 min and was then incubated in fresh 5% TBST-Blotto with 1:1000 for caveolin-1 (Santa Cruz Biotechnology, Santa Cruz, Calif.), 1:1000 for p21 (BD Pharmingen, Frank lakes, NJ) and 1:10000 for β-actin (Sigma) primary antibody overnight with gentle shaking at 4° C. After washing with TBST for 10 min, the membrane was incubated with respective secondary antibody (1:5000) (Santa cruz, Calif.) in 5% TBST-Blotto for 3 hr. The membrane is then washed with TBST for 10 min, incubated with chemiluminiscence reagent from Perkin Elmer for one min and then exposed to Kodak X-OMAT AR autoradiography film (Eastman Kodak, Rochester, N.Y.).

[4] = test system: LNCaP cell xenografts; assay: LNCaP xenograft in athymic nude mice; type: in vivo
Method: Male athymic BALB/c nude mice (age 4-6 weeks) were purchased from Harlan (Indianapolis, Ind.). LNCaP cells (1×106) were implanted with matrigel (BD Biosciences, San Jose, Calif.) subcutaneously into the flank of each mouse. Ten days after cell inoculation, animals were divided into three groups of 10 mice each. The first group received 100 μL vehicle (1% DMSO in corn oil) by oral gavage and the second and third groups of animals received 10 and 20 mg/kg/d doses of BA in vehicle every second day for 14 days (7 doses). The mice were weighed, and tumor areas were measured throughout the study. After 22 days, the animals were sacrificed, final body and tumor weights were determined and selected tissues were further examined by routine hematoxylin and eosin staining and immunohistochemical analysis.
Tissue sections ([…] thick) mounted on poly-Lysine-coated slides were deparaffinized by standard methods. Endogenous peroxidase was blocked by the use of 3% hydrogen peroxide in PBS for 10 min. Antigen retrieval for VEGF and CD31 staining was done for 10 min in 10 mmol/L sodium citrate buffer (pH 6) heated at 95° C. in a steamer followed by cooling for 15 min. […] Hematoxylin and eosin staining was determined as previously described.

SMILES	effect of T007 on induced caveolin-1 response [1]	Sp1 binding to p21 promoter [2]	recruitment of PPARγ to proximal GC-rich region of p21 promoter [2]	caveolin-1 induction [3]	effect of T007 on induced caveolin-1 response [3]	changes in organ or body weights or histopathology of liver and other tissues ([4]; 10 and 20 mg/kg/d, data not shown)	mitotic activity in tumors ([4]; treated mice, corn oil group 6-8)
COC(=O)C12CCC(C(C)C)C1C1CCC3C4(C)C=C(C#N)C(=O)C(C)(C)C4CCC3(C)C1(C)CC2 (stereo not drawn) [CN-BA-Me, Methyl 2-cyano-lup-1-en-3-oxo-20-oate]	inhibition of the induced caveolin-1 response	enhanced binding of Sp1	recruited PPARγ	induce caveolin-1	inhibition of the induced caveolin-1 response	–	–
CC(C)C1CCC2(C(=O)O)CCC3(C)C(CCC4C5(C)C=C(C#N)C(=O)C(C)(C)C5CCC43C)C12 (stereo not drawn) [CN-BA]	inhibition of the induced caveolin-1 response	enhanced binding of Sp1	recruited PPARγ	induce caveolin-1	inhibition of the induced caveolin-1 response	–	–
C=C(C)[C@@H]1CC[C@]2(C(=O)O)CC[C@]3(C)[C@H](CC[C@@H]4[C@@]5(C)CC[C@H](O)C(C)(C)[C@@H]5CC[C@]43C)[C@@H]12 [betulinic acid, Betulinic acid]	–	–	–	–	–	no treatment-related changes	1-2 microfigures/hpf
